System: metalloprotease 9 (MMP-9)
Assay: Basal synthesis/release of MMP-9 by normal human epidermal keratinocytes (ELISA of culture supernatants)
Type: cell-based
Settings: NHEK; for % of basal synthesis/release of MMP-9 by keratinocytes: 24 hours incubation; for effect on the basal level of synthesis and/or release of MMP-9 (in words): doses of Table I
Protocol: This test was performed on cells cultured at 37° C., 5% CO2. The culture medium is Keratinocyte-SFM supplemented with epidermal growth factor (EGF) at 0.25 ng/ml, pituitary extract (PE) at 25 μg/ml and gentamicin at 25 μg/ml. […] At the end of this incubation, the culture supernatants were collected and stored so as to assay the amounts of MMP-9 secreted using the ELISA R&D Systems assay kit of reference DY911. The inter-group comparisons were performed using the unpaired bilateral Student's t-test.

SMILES: N[C@@H](CS)C(=O)O [Cysteine]
- % of basal synthesis/release of MMP-9 by keratinocytes (cysteine 1.2 μg/ml): −12%

SMILES: NCCS(=O)(=O)O [Taurine]
- % of basal synthesis/release of MMP-9 by keratinocytes (taurine 1.2 μg/ml): +11%
- effect on the basal level of synthesis and/or release of MMP-9 (in words): reverse and moderate tendency

SMILES: CCCCCCCCCCC/C=C\CCCCC(=O)O [Petroselinic acid, C18 delta-6-cis-octadecenoic acid]
- % of basal synthesis/release of MMP-9 by keratinocytes (petroselinic acid 0.1 μM): −12%
- effect on the basal level of synthesis and/or release of MMP-9 (in words): no inhibitory activity
